A value given as a limit tells only on which side of the number the result lay.

For the first data set, the system named is Mycobacterium tuberculosis (strain H37Ra), cyt bd.
Assay: not given
To be noted: Mtb H37Ra; test compound 10 μM added after Compound X 0.9 μM.
For the compound `Cc1c(-c2nc3ccc(CN4CCC(C(F)(F)F)CC4)cn3n2)[nH]c2ccccc2c1=O` [Compound 8], the “(i) % OCR after cyt bd inhibitor” value is given as 82.67%.
Still for that read-out and setting: in the case of `Cc1c(-c2nc3ccc(N4CCC(OC(F)(F)F)CC4)cn3n2)[nH]c2ccccc2c1=O` [Compound 13] it was 61.74%; in that of `Cc1c(-c2nc3ccc(-c4cc(C(F)(F)F)nn4C)cn3n2)[nH]c2ccccc2c1=O` [Compound 15], 91.58%.
The same measure, in the same setting: to `Cc1c(-c2nc3ccc(N4CCN(CC(F)(F)F)CC4)cn3n2)[nH]c2ccccc2c1=O` [Compound 16] belongs 80.34%; to `Cc1c(-c2nc3ccc(CC(F)(F)F)cn3n2)[nH]c2ccccc2c1=O` [Compound 20], 78.5%; to `Cc1c(-c2nc3cc(C(F)(F)F)c(-c4ccccc4)cn3n2)[nH]c2ccccc2c1=O` [Compound 21], 81.6%.
In the case of `Cc1c(-c2cn3cc(-c4cccc(OC(F)(F)F)c4)ccc3n2)[nH]c2ccccc2c1=O` [Compound 23], the “(i) % OCR after cyt bd inhibitor” value amounted to 97.51%.
With `Cc1c(-c2nc3ccc(-c4nc(C(F)(F)F)no4)cn3n2)[nH]c2ccccc2c1=O` [Compound 24], the “(i) % OCR after cyt bd inhibitor” value is 99.13%.
As to `CNC(=O)c1c(-c2nc3ccc(-c4nc(C(F)(F)F)cs4)cn3n2)[nH]c2ccccc2c1=O` [Compound 27], the “(i) % OCR after cyt bd inhibitor” value stood at 111.36%.

Staying with this data set, now noted: Mtb H37Ra; test compound 10 μM after Compound X 0.9 μM, then CCCP 1 μM.
As for `Cc1c(-c2nc3ccc(CN4CCC(C(F)(F)F)CC4)cn3n2)[nH]c2ccccc2c1=O` [Compound 8], the “(ii) % OCR after cccp” value was determined as 59.43%.
Still for that read-out and setting: in the case of `Cc1c(-c2nc3ccc(N4CCC(OC(F)(F)F)CC4)cn3n2)[nH]c2ccccc2c1=O` [Compound 13] it was 83.9%; in that of `Cc1c(-c2nc3ccc(-c4cc(C(F)(F)F)nn4C)cn3n2)[nH]c2ccccc2c1=O` [Compound 15], 94.75%; in that of `Cc1c(-c2nc3ccc(N4CCN(CC(F)(F)F)CC4)cn3n2)[nH]c2ccccc2c1=O` [Compound 16], 95.29%.
Same read-out and setting: in the case of `Cc1c(-c2nc3ccc(CC(F)(F)F)cn3n2)[nH]c2ccccc2c1=O` [Compound 20] it was 102.86%; in that of `Cc1c(-c2nc3cc(C(F)(F)F)c(-c4ccccc4)cn3n2)[nH]c2ccccc2c1=O` [Compound 21], 103.4%.
Still for that read-out and setting: to `Cc1c(-c2cn3cc(-c4cccc(OC(F)(F)F)c4)ccc3n2)[nH]c2ccccc2c1=O` [Compound 23] belongs 110.11%; to `Cc1c(-c2nc3ccc(-c4nc(C(F)(F)F)no4)cn3n2)[nH]c2ccccc2c1=O` [Compound 24], 113.29%.
On to `CNC(=O)c1c(-c2nc3ccc(-c4nc(C(F)(F)F)cs4)cn3n2)[nH]c2ccccc2c1=O` [Compound 27], for which the “(ii) % OCR after cccp” value amounted to 117.59%.

A further data set relates to Mycobacterium tuberculosis strain H37Rv ΔctaE-ΔqcrCAB. The experiment in a line: microbe, parasite or virus in culture. It is filed as cell-based. To be noted: 240 h.
Take `Cc1c(-c2nc3ccc(CN4CCC(C(F)(F)F)CC4)cn3n2)[nH]c2ccccc2c1=O` [Compound 8]: half-maximal inhibition (IC50) required 3.7 µM.
In the case of `Cc1c(-c2nc3ccc(N4CCC(OC(F)(F)F)CC4)cn3n2)[nH]c2ccccc2c1=O` [Compound 13], the IC50 is 4.12 µM.
In turn, `Cc1c(-c2nc3ccc(-c4cc(C(F)(F)F)nn4C)cn3n2)[nH]c2ccccc2c1=O` [Compound 15] showed a half-maximal inhibitory concentration (IC50) of 57 µM.
The compound `Cc1c(-c2nc3ccc(N4CCN(CC(F)(F)F)CC4)cn3n2)[nH]c2ccccc2c1=O` [Compound 16] had an IC50 of 1.17 µM.
Same read-out and setting: in the case of `Cc1c(-c2nc3ccc(CC(F)(F)F)cn3n2)[nH]c2ccccc2c1=O` [Compound 20] it was 2.17 µM.
Same read-out and setting: to `Cc1c(-c2nc3cc(C(F)(F)F)c(-c4ccccc4)cn3n2)[nH]c2ccccc2c1=O` [Compound 21] belongs 11.4 µM; to `Cc1c(-c2cn3cc(-c4cccc(OC(F)(F)F)c4)ccc3n2)[nH]c2ccccc2c1=O` [Compound 23], > 100 µM.
The same measure, in the same setting: in the case of `Cc1c(-c2nc3ccc(-c4nc(C(F)(F)F)no4)cn3n2)[nH]c2ccccc2c1=O` [Compound 24] it was 2.95 µM; in that of `CNC(=O)c1c(-c2nc3ccc(-c4nc(C(F)(F)F)cs4)cn3n2)[nH]c2ccccc2c1=O` [Compound 27], > 50 µM.

For a further data set, the system named is Mitochondrial toxicity (Glu/Gal). Kind of data set: Mitochondrial toxicity (Glu/Gal) assay. Format: cell-based. Further details: key to Score: “negative” means that in the test, it was found to have low mitotoxicity (and hence no mitotoxicity alerts); “positive” means that there were some mitotoxicity alerts; “inconclusive” means that no accurate conclusion could be drawn. Conditions: galactose medium; read-out: IC50, gal. The source says: The compounds of the invention/examples may have advantages associated with in vitro potency, kill kinetics (i.e. bactericidal effect) in vitro, PK properties, food effect, safety/toxicity (including liver toxicity, coagulation, 5-LO oxygenase), metabolic stability, Ames II negativity, MNT negativity, aqueous based solubility (and ability to formulate) and/or cardiovascular effect e.g. on animals (e.g. anesthetized guinea pig). The data below that was generated/calculated may be obtained using standard methods/assays, for instance that are available in the literature or which may be performed by a supplier (e.g. Microsomal Stability Assay—Cyprotex, Mitochondrial toxicity (Glu/Gal) assay—Cyprotex, as well as literature CYP cocktail inhibition assays).
As for `Cc1c(-c2nc3ccc(CN4CCC(C(F)(F)F)CC4)cn3n2)[nH]c2ccccc2c1=O` [Compound 8], the IC50 is 180 µM.
Regarding `Cc1c(-c2nc3ccc(N4CCC(OC(F)(F)F)CC4)cn3n2)[nH]c2ccccc2c1=O` [Compound 13], the IC50 was determined as 141 µM.
For the compound `Cc1c(-c2nc3ccc(-c4cc(C(F)(F)F)nn4C)cn3n2)[nH]c2ccccc2c1=O` [Compound 15], the IC50 worked out at 200 µM.
Still for that read-out and setting: in the case of `Cc1c(-c2nc3ccc(N4CCN(CC(F)(F)F)CC4)cn3n2)[nH]c2ccccc2c1=O` [Compound 16] it was 200 µM; in that of `Cc1c(-c2nc3ccc(CC(F)(F)F)cn3n2)[nH]c2ccccc2c1=O` [Compound 20], 125 µM.
On to `Cc1c(-c2nc3cc(C(F)(F)F)c(-c4ccccc4)cn3n2)[nH]c2ccccc2c1=O` [Compound 21], for which the IC50 is 50 µM.
For `Cc1c(-c2cn3cc(-c4cccc(OC(F)(F)F)c4)ccc3n2)[nH]c2ccccc2c1=O` [Compound 23], the IC50 turned out to be 200 µM.
As for `Cc1c(-c2nc3ccc(-c4nc(C(F)(F)F)no4)cn3n2)[nH]c2ccccc2c1=O` [Compound 24], the IC50 was 20 µM.
Same read-out and setting: to `CNC(=O)c1c(-c2nc3ccc(-c4nc(C(F)(F)F)cs4)cn3n2)[nH]c2ccccc2c1=O` [Compound 27] belongs 100 µM.

The data set is the same for the next values; noted with them: glucose medium; read-out: IC50, glu.
For the compound `Cc1c(-c2nc3ccc(CN4CCC(C(F)(F)F)CC4)cn3n2)[nH]c2ccccc2c1=O` [Compound 8], the IC50 came out at 163 µM.
Turning to `Cc1c(-c2nc3ccc(N4CCC(OC(F)(F)F)CC4)cn3n2)[nH]c2ccccc2c1=O` [Compound 13], the IC50 was found to be 200 µM.
The same measure, in the same setting: to `Cc1c(-c2nc3ccc(-c4cc(C(F)(F)F)nn4C)cn3n2)[nH]c2ccccc2c1=O` [Compound 15] belongs 44.3 µM.
Turning to `Cc1c(-c2nc3ccc(N4CCN(CC(F)(F)F)CC4)cn3n2)[nH]c2ccccc2c1=O` [Compound 16], the IC50 stood at 200 µM.
Consider `Cc1c(-c2nc3ccc(CC(F)(F)F)cn3n2)[nH]c2ccccc2c1=O` [Compound 20], for which the IC50 was 176 µM.
Regarding `Cc1c(-c2nc3cc(C(F)(F)F)c(-c4ccccc4)cn3n2)[nH]c2ccccc2c1=O` [Compound 21], the IC50 was determined as 50 µM.
Same read-out and setting: in the case of `Cc1c(-c2cn3cc(-c4cccc(OC(F)(F)F)c4)ccc3n2)[nH]c2ccccc2c1=O` [Compound 23] it was 200 µM; in that of `Cc1c(-c2nc3ccc(-c4nc(C(F)(F)F)no4)cn3n2)[nH]c2ccccc2c1=O` [Compound 24], 20 µM; in that of `CNC(=O)c1c(-c2nc3ccc(-c4nc(C(F)(F)F)cs4)cn3n2)[nH]c2ccccc2c1=O` [Compound 27], 100 µM.

The same data set, now with this note: mitotoxicity score.
With `Cc1c(-c2nc3ccc(CN4CCC(C(F)(F)F)CC4)cn3n2)[nH]c2ccccc2c1=O` [Compound 8], the Score result is recorded as “negative”.
The same measure, in the same setting: in the case of `Cc1c(-c2nc3ccc(N4CCC(OC(F)(F)F)CC4)cn3n2)[nH]c2ccccc2c1=O` [Compound 13] it was “negative”.
On to `Cc1c(-c2nc3ccc(-c4cc(C(F)(F)F)nn4C)cn3n2)[nH]c2ccccc2c1=O` [Compound 15], for which the Score result is recorded as “negative”.
On to `Cc1c(-c2nc3ccc(N4CCN(CC(F)(F)F)CC4)cn3n2)[nH]c2ccccc2c1=O` [Compound 16], for which the Score result was “negative”.
Same read-out and setting: to `Cc1c(-c2nc3ccc(CC(F)(F)F)cn3n2)[nH]c2ccccc2c1=O` [Compound 20] belongs “negative”; to `Cc1c(-c2nc3cc(C(F)(F)F)c(-c4ccccc4)cn3n2)[nH]c2ccccc2c1=O` [Compound 21], “negative”.
As to `Cc1c(-c2cn3cc(-c4cccc(OC(F)(F)F)c4)ccc3n2)[nH]c2ccccc2c1=O` [Compound 23], the Score result is “negative”.
`Cc1c(-c2nc3ccc(-c4nc(C(F)(F)F)no4)cn3n2)[nH]c2ccccc2c1=O` [Compound 24]: the Score entry is “negative”.
On to `CNC(=O)c1c(-c2nc3ccc(-c4nc(C(F)(F)F)cs4)cn3n2)[nH]c2ccccc2c1=O` [Compound 27], for which the Score entry is “negative”.

Still in this data set, the particulars now being: ratio glu/gal.
For `Cc1c(-c2nc3ccc(CN4CCC(C(F)(F)F)CC4)cn3n2)[nH]c2ccccc2c1=O` [Compound 8], the “Δ IC50,glu/IC50,gal” value was “[x]0.91”.
Still for that read-out and setting: in the case of `Cc1c(-c2nc3ccc(N4CCC(OC(F)(F)F)CC4)cn3n2)[nH]c2ccccc2c1=O` [Compound 13] it was “[x]1.42”; in that of `Cc1c(-c2nc3ccc(-c4cc(C(F)(F)F)nn4C)cn3n2)[nH]c2ccccc2c1=O` [Compound 15], “[x]0.22”.
Still for that read-out and setting: in the case of `Cc1c(-c2nc3ccc(N4CCN(CC(F)(F)F)CC4)cn3n2)[nH]c2ccccc2c1=O` [Compound 16] it was “[x]0”.
`Cc1c(-c2nc3ccc(CC(F)(F)F)cn3n2)[nH]c2ccccc2c1=O` [Compound 20]: the “Δ IC50,glu/IC50,gal” value was “[x]1.41”.
Same read-out and setting: in the case of `Cc1c(-c2nc3cc(C(F)(F)F)c(-c4ccccc4)cn3n2)[nH]c2ccccc2c1=O` [Compound 21] it was “[x]0”.
Still for that read-out and setting: in the case of `Cc1c(-c2nc3ccc(-c4nc(C(F)(F)F)no4)cn3n2)[nH]c2ccccc2c1=O` [Compound 24] it was “[x]0”; in that of `CNC(=O)c1c(-c2nc3ccc(-c4nc(C(F)(F)F)cs4)cn3n2)[nH]c2ccccc2c1=O` [Compound 27], “[x]0”.

These data come from patent US20220389008A1, “4-QUINOLINONE ANTIBACTERIAL COMPOUNDS” (Janssen Sciences Ireland Unlimited Company, priority 2019, published 2022).
